Measurements from patent publication US12478598B2 (Rush University Medical Center, priority 2019, dated 2025).

What was measured:
[1] = test system: lenti-GLDC shRNA-insulted mice; assay: Barnes maze spatial learning and memory in lenti-GLDC shRNA-insulted mice; type: in vivo, C57/BL6 mice; settings: 50 and 100 mg/kg body wt/d, daily gavage, after 7 d of treatment
Method: FIG. 1A-1B. […] C57/BL6 mice (8-10 week old) received lentiviral GLDC shRNA (1×10^7 IFU/mouse in 100 μl Hank's Balanced Salt Solution or HBSS) once via tail-vein injection. Therefore, control mice also received 100 μl HBSS via tail-vein. From 7 d after lenti-GLDC shRNA injection, mice were treated with different doses (50 and 100 mg/kg body wt/d) of CA daily via gavage. After 7 d of CA treatment, spatial learning and memory was monitored by Barnes maze (FIG. 1A, latency; FIG. 1B, errors). Results are mean±SEM of five mice per group.
(§1) C57/BL6 mice (8-10 week old) received lentiviral GLDC shRNA (1×10^7 IFU/mouse in 100 μl Hank's Balanced Salt Solution or HBSS) once via tail-vein injection (FIG. 1). Therefore, a group of control mice received only 100 μl HBSS via tail-vein injection.
(§2) Therefore, one group of lenti-GLDC shRNA-insulted mice were also treated with 100 μl 0.5% methyl cellulose as vehicle control.
Lenti-GLDC shRNA-insulted mice took longer time to find the correct hole (FIG. 1A) and made more errors (FIG. 1B) as compared to HBSS-treated control mice.

[2] = test system: lenti-GLDC shRNA-insulted mice; assay: Glycine level in cortex of lenti-GLDC shRNA-insulted mice (fluorometric assay kit); type: in vivo, C57/BL6 mice; settings: oral, 14 d of treatment
Method: FIG. 2. […] C57/BL6 mice (8-10 week old) received lentiviral GLDC shRNA (1×10^7 IFU/mouse in 100 μl HBSS) once via tail-vein injection. Therefore, control mice also received 100 μl HBSS via tail-vein. From 7 d after lenti-GLDC shRNA injection, mice were treated with different doses (50 and 100 mg/kg body wt/d) of CA daily via gavage. After 14 d of CA treatment, the level of glycine was measured in cortex by using a fluorometric assay kit (Biovision). Each mouse sample was run in triplicate. Results are mean±SEM of five mice per group.
as §1, §2
On 14 d of treatment, mice were sacrificed and level of glycine was measured in brain (cortex).

O=C(O)C=Cc1ccccc1 [cinnamic acid]
errors in reaching the target hole (Barnes maze) [1]: significantly reduced latency and errors | latency in reaching the target hole (Barnes maze) [1]: significantly reduced latency | level of glycine in the cortex ([2]; 50 mg/kg body wt/d): very effective in lowering the level of glycine | level of glycine in the cortex ([2]; 50 and 100 mg/kg body wt/d): strongly inhibited the level of glycine
